Measured values published in patent publication US12252524B2, “GIP/GLP1 co-agonist compounds” (Eli Lilly and Company, priority 2018, dated 2025).
Numbered stars: 1 amine (or outer) side, 2 acyl side, 3 side chain; on linkers, the order of the positions; unused ones are H or OH. Square brackets hold non-standard residues; d marks the D form. Side chains are listed from the residue outwards. Peptide text beside a SMILES is read from it. * marks the point of attachment. C20 diacid = O=C(O)CCCCCCCCCCCCCCCCCCC(=O)*; C18 diacid = O=C(O)CCCCCCCCCCCCCCCCC(=O)*; αMePhe(2-F) = C[C@](N)(Cc1ccccc1F)C(=O)O; C16 diacid = O=C(O)CCCCCCCCCCCCCCC(=O)*; γGlu = O=C(O)[C@H](CCC(=O)[*:2])N[*:1]; αMeF = C[C@](N)(Cc1ccccc1)C(=O)O; αMeL = CC(C)C[C@](C)(N)C(=O)O; AEEA = NCCOCCOCC(=O)O; Aib = CC(C)(N)C(=O)O

Key:
[1] = biological target: human GLP-1 receptor (GLP-1R) (Homo sapiens, UniProt P43220); assay: cAMP pharmacological functional assay in presence of casein, hGLP-1R; format: cell-based; details: HEK293 cells expressing hGLP-1R, 0.1% Casein, geometric mean; read-out: hGLP1R cAMP Rel EC50 nM (SEM, n)
[2] = biological target: T1, gastric inhibitory peptide receptor (GIPR) (Homo sapiens, UniProt P48546); assay: cAMP pharmacological functional assay in presence of casein, hGIPR; format: cell-based; details: HEK293 cells expressing hGIPR, 0.1% Casein, geometric mean; read-out: hGIPR cAMP Rel EC50 nM (SEM, n)
T1 sequence (P48546 22-466): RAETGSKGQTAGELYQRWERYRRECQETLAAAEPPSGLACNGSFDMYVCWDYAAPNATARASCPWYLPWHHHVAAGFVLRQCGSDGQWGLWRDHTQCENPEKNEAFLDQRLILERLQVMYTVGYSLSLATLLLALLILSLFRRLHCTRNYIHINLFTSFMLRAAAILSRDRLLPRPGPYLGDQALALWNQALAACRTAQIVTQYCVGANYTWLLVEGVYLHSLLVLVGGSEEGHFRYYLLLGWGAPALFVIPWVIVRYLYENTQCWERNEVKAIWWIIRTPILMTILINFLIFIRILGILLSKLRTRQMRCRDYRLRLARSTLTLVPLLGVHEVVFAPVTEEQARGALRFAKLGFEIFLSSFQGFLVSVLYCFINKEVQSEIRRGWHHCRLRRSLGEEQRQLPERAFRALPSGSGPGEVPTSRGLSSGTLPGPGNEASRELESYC

human GLP-1 receptor (GLP-1R), sequence (P43220 24-463): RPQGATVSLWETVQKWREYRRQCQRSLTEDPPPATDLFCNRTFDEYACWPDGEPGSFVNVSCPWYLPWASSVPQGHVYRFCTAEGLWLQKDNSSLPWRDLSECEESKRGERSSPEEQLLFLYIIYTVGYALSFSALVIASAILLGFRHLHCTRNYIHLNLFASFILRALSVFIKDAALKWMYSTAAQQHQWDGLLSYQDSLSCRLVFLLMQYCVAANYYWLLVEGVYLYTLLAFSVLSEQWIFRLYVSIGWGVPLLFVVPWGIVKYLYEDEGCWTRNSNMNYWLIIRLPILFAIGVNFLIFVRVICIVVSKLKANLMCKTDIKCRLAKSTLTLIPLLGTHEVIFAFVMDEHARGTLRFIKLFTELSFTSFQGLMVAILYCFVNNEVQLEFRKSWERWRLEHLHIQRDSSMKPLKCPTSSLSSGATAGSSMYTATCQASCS

Structure (SMILES) | EC50 [1] [nM] | EC50 [2] [nM]
CC[C@H](C)[C@H](NC(=O)[C@H](CC(C)C)NC(=O)[C@](C)(Cc1ccccc1)NC(=O)[C@@H](CCC(=O)O)NC(=O)[C@@H](NC(=O)[C@H](Cc1ccccc1)NC(=O)[C@@H](NC(=O)C(C)(C)NC(=O)[C@H](CCC(N)=O)NC(=O)[C@H](C)NC(=O)[C@H](CCCCNC(=O)COCCOCCNC(=O)COCCOCCNC(=O)CC[C@H](NC(=O)CCCCCCCCCCCCCCCCCCC(=O)O)C(=O)O)NC(=O)[C@H](CCC(=O)O)NC(=O)[C@H](CC(=O)O)NC(=O)[C@H](CC(C)C)NC(=O)[C@](C)(CC(C)C)NC(=O)[C@@H](NC(=O)[C@H](CO)NC(=O)[C@H](Cc1c[nH]cn1)NC(=O)[C@H](CC(=O)O)NC(=O)[C@H](CO)NC(=O)[C@@H](NC(=O)[C@](C)(Cc1ccccc1F)NC(=O)[C@@H](NC(=O)CNC(=O)[C@H](CCC(=O)O)NC(=O)C(C)(C)NC(=O)[C@@H](N)Cc1ccc(O)cc1)[C@@H](C)O)[C@@H](C)O)[C@@H](C)CC)[C@@H](C)O)[C@@H](C)CC)C(=O)N[C@H](CCC(=O)O)C(=O)NCC(=O)NCC(=O)N1CCC[C@H]1C(=O)N[C@@H](CO)C(=O)N[C@@H](CO)C(=O)NCC(=O)N[C@@H](C)C(=O)N1CCC[C@H]1C(=O)N1CCC[C@H]1C(=O)N1CCC[C@H]1C(=O)N[C@@H](CO)C(N)=O [Example 165] (H-Y[Aib]EGT[αMePhe(2-F)]TSDHSI[αMeL]LDEK([AEEA-AEEA-γGlu-C20 diacid])AQ[Aib]TFI[dE][αMeF]LI[dE]GGPSSGAPPPS-NH2) | 5.81 | 1.04
CC[C@H](C)[C@H](NC(=O)[C@H](CC(C)C)NC(=O)[C@H](Cc1ccc(O)cc1)NC(=O)[C@@H](CCC(=O)O)NC(=O)[C@@H](NC(=O)[C@H](Cc1ccccc1)NC(=O)[C@@H](NC(=O)C(C)(C)NC(=O)[C@H](CCC(N)=O)NC(=O)[C@H](C)NC(=O)[C@H](CCCCNC(=O)COCCOCCNC(=O)COCCOCCNC(=O)CC[C@H](NC(=O)CCCCCCCCCCCCCCCCCCC(=O)O)C(=O)O)NC(=O)[C@H](CCC(=O)O)NC(=O)[C@H](CC(=O)O)NC(=O)[C@H](CC(C)C)NC(=O)[C@](C)(CC(C)C)NC(=O)[C@@H](NC(=O)[C@H](CO)NC(=O)[C@H](Cc1c[nH]cn1)NC(=O)[C@H](CC(=O)O)NC(=O)[C@H](CO)NC(=O)[C@@H](NC(=O)[C@](C)(Cc1ccccc1F)NC(=O)[C@@H](NC(=O)CNC(=O)[C@H](CCC(=O)O)NC(=O)C(C)(C)NC(=O)[C@@H](N)Cc1ccc(O)cc1)[C@@H](C)O)[C@@H](C)O)[C@@H](C)CC)[C@@H](C)O)[C@@H](C)CC)C(=O)N[C@@H](CCC(=O)O)C(=O)NCC(=O)NCC(N)=O [Example 166] (H-Y[Aib]EGT[αMePhe(2-F)]TSDHSI[αMeL]LDEK([AEEA-AEEA-γGlu-C20 diacid])AQ[Aib]TFI[dE]YLIEGG-NH2; N-terminus assumed) | 4.08 | 0.355
CC[C@H](C)[C@H](NC(=O)[C@H](CC(C)C)NC(=O)[C@H](Cc1ccc(O)cc1)NC(=O)[C@@H](CCC(=O)O)NC(=O)[C@@H](NC(=O)[C@H](Cc1ccccc1)NC(=O)[C@@H](NC(=O)C(C)(C)NC(=O)[C@H](CCC(N)=O)NC(=O)[C@H](C)NC(=O)[C@H](CCCCNC(=O)COCCOCCNC(=O)COCCOCCNC(=O)CC[C@H](NC(=O)CCCCCCCCCCCCCCCCCCC(=O)O)C(=O)O)NC(=O)[C@H](CCC(=O)O)NC(=O)[C@H](CC(=O)O)NC(=O)[C@H](CC(C)C)NC(=O)[C@](C)(CC(C)C)NC(=O)[C@@H](NC(=O)[C@H](CO)NC(=O)[C@H](Cc1c[nH]cn1)NC(=O)[C@H](CC(=O)O)NC(=O)[C@H](CO)NC(=O)[C@@H](NC(=O)[C@](C)(Cc1ccccc1F)NC(=O)[C@@H](NC(=O)CNC(=O)[C@H](CCC(=O)O)NC(=O)C(C)(C)NC(=O)[C@@H](N)Cc1ccc(O)cc1)[C@@H](C)O)[C@@H](C)O)[C@@H](C)CC)[C@@H](C)O)[C@@H](C)CC)C(=O)N[C@@H](CCC(=O)O)C(=O)NCC(=O)NCC(=O)N1CCC[C@H]1C(=O)N[C@@H](CO)C(=O)N[C@@H](CO)C(=O)NCC(N)=O [Example 167] (H-Y[Aib]EGT[αMePhe(2-F)]TSDHSI[αMeL]LDEK([AEEA-AEEA-γGlu-C20 diacid])AQ[Aib]TFI[dE]YLIEGGPSSG-NH2) | 1.2 | 0.617
CC[C@H](C)[C@H](NC(=O)[C@H](CC(C)C)NC(=O)[C@H](Cc1ccc(O)cc1)NC(=O)[C@@H](CCC(=O)O)NC(=O)[C@@H](NC(=O)[C@H](Cc1ccccc1)NC(=O)[C@@H](NC(=O)C(C)(C)NC(=O)[C@H](CCC(N)=O)NC(=O)[C@H](C)NC(=O)[C@H](CCCCNC(=O)COCCOCCNC(=O)COCCOCCNC(=O)CC[C@H](NC(=O)CCCCCCCCCCCCCCCCCCC(=O)O)C(=O)O)NC(=O)[C@H](CCC(=O)O)NC(=O)[C@H](CC(=O)O)NC(=O)[C@H](CC(C)C)NC(=O)[C@](C)(CC(C)C)NC(=O)[C@@H](NC(=O)[C@H](CO)NC(=O)[C@H](Cc1c[nH]cn1)NC(=O)[C@H](CC(=O)O)NC(=O)[C@H](CO)NC(=O)[C@@H](NC(=O)[C@](C)(Cc1ccccc1F)NC(=O)[C@@H](NC(=O)CNC(=O)[C@H](CCC(=O)O)NC(=O)C(C)(C)NC(=O)[C@@H](N)Cc1ccc(O)cc1)[C@@H](C)O)[C@@H](C)O)[C@@H](C)CC)[C@@H](C)O)[C@@H](C)CC)C(=O)N[C@@H](CCC(=O)O)C(=O)NCC(=O)NCC(=O)N1CCC[C@H]1C(=O)N[C@@H](CO)C(=O)N[C@@H](CO)C(=O)NCC(=O)N[C@@H](C)C(=O)N1CCC[C@H]1C(=O)N1CCC[C@H]1C(=O)N1CCC[C@H]1C(=O)N[C@@H](CO)C(N)=O [Example 168] (H-Y[Aib]EGT[αMePhe(2-F)]TSDHSI[αMeL]LDEK([AEEA-AEEA-γGlu-C20 diacid])AQ[Aib]TFI[dE]YLIEGGPSSGAPPPS-NH2) | 1.8 | 0.572
CC[C@H](C)[C@H](NC(=O)[C@H](CC(C)C)NC(=O)[C@H](Cc1ccc(O)cc1)NC(=O)[C@@H](CCC(=O)O)NC(=O)[C@@H](NC(=O)[C@H](Cc1ccccc1)NC(=O)[C@@H](NC(=O)C(C)(C)NC(=O)[C@H](CCC(N)=O)NC(=O)[C@H](C)NC(=O)[C@H](CCCCNC(=O)COCCOCCNC(=O)COCCOCCNC(=O)CC[C@H](NC(=O)CCCCCCCCCCCCCCCCC(=O)O)C(=O)O)NC(=O)[C@H](CCC(=O)O)NC(=O)[C@H](CC(=O)O)NC(=O)[C@H](CC(C)C)NC(=O)[C@](C)(CC(C)C)NC(=O)[C@@H](NC(=O)[C@H](CO)NC(=O)[C@H](Cc1c[nH]cn1)NC(=O)[C@H](CC(=O)O)NC(=O)[C@H](CO)NC(=O)[C@@H](NC(=O)[C@](C)(Cc1ccccc1F)NC(=O)[C@@H](NC(=O)CNC(=O)[C@H](CCC(=O)O)NC(=O)C(C)(C)NC(=O)[C@@H](N)Cc1ccc(O)cc1)[C@@H](C)O)[C@@H](C)O)[C@@H](C)CC)[C@@H](C)O)[C@@H](C)CC)C(=O)N[C@@H](CCC(=O)O)C(=O)NCC(=O)NCC(=O)N1CCC[C@H]1C(=O)N[C@@H](CO)C(=O)N[C@@H](CO)C(=O)NCC(=O)N[C@@H](C)C(=O)N1CCC[C@H]1C(=O)N1CCC[C@H]1C(=O)N1CCC[C@H]1C(=O)N[C@@H](CO)C(N)=O [Example 169] (H-Y[Aib]EGT[αMePhe(2-F)]TSDHSI[αMeL]LDEK([AEEA-AEEA-γGlu-C18 diacid])AQ[Aib]TFI[dE]YLIEGGPSSGAPPPS-NH2) | 3.37 | 0.86
CC[C@H](C)[C@H](NC(=O)[C@H](CC(C)C)NC(=O)[C@H](Cc1ccc(O)cc1)NC(=O)[C@@H](CCC(=O)O)NC(=O)[C@@H](NC(=O)[C@H](Cc1ccccc1)NC(=O)[C@@H](NC(=O)C(C)(C)NC(=O)[C@H](CCC(N)=O)NC(=O)[C@H](C)NC(=O)[C@H](CCCCNC(=O)COCCOCCNC(=O)COCCOCCNC(=O)CC[C@H](NC(=O)CCCCCCCCCCCCCCC(=O)O)C(=O)O)NC(=O)[C@H](CCC(=O)O)NC(=O)[C@H](CC(=O)O)NC(=O)[C@H](CC(C)C)NC(=O)[C@](C)(CC(C)C)NC(=O)[C@@H](NC(=O)[C@H](CO)NC(=O)[C@H](Cc1c[nH]cn1)NC(=O)[C@H](CC(=O)O)NC(=O)[C@H](CO)NC(=O)[C@@H](NC(=O)[C@](C)(Cc1ccccc1F)NC(=O)[C@@H](NC(=O)CNC(=O)[C@H](CCC(=O)O)NC(=O)C(C)(C)NC(=O)[C@@H](N)Cc1ccc(O)cc1)[C@@H](C)O)[C@@H](C)O)[C@@H](C)CC)[C@@H](C)O)[C@@H](C)CC)C(=O)N[C@@H](CCC(=O)O)C(=O)NCC(=O)NCC(=O)N1CCC[C@H]1C(=O)N[C@@H](CO)C(=O)N[C@@H](CO)C(=O)NCC(=O)N[C@@H](C)C(=O)N1CCC[C@H]1C(=O)N1CCC[C@H]1C(=O)N1CCC[C@H]1C(=O)N[C@@H](CO)C(N)=O [Example 170] (H-Y[Aib]EGT[αMePhe(2-F)]TSDHSI[αMeL]LDEK([AEEA-AEEA-γGlu-C16 diacid])AQ[Aib]TFI[dE]YLIEGGPSSGAPPPS-NH2) | 10.4 | 0.569
